Laboratory results from US20040006236A1, “Diaminopropionic acid derivatives” (priority 1999, published 2004).
Counter-ions that a name gives are not always drawn. Like-named read-outs stand apart in the source and are kept apart here.

Tests used:
[1] = tested on: T lymphocyte proliferation (C57BI/6 spleen cells with irradiated BALB/c spleen cells); test: Mixed lymphocyte reaction (MLR), one-way; format: cell-based, mice
Outline: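 Irradiated BALB/c spleen cells mixed with C57BI/6 spleen cells in RPMI1640/10% heat-inactivated FBS/2-mercaptoethanol, with serial antagonist dilutions; 3 days at 5% CO2. Tritiated thymidine (0.5 μCi/well) added on day 3; incorporation counted by liquid scintillation after a further 6 h.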

[2] = biological target: T1, LFA-1 binding to immobilized ICAM-1 (Homo sapiens, UniProt P05107+P20701); test: LFA-1/ICAM-1 protein-protein assay (solid-phase ELISA)
T1 construct: made in house; host or cells: transfected 293 cells (LFA-1)
Outline: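 Human 5dICAM-Ig (ICAM-1 extracellular domain–IgG Fc) coated on plates; membrane-bound LFA-1 from transfected 293 cells (280 ng/mL) added with compound in Mn2+-containing HEPES buffer pH 7.2, 2 h at 37° C. Bound LFA-1 detected via anti-β2 antibody and HRP/TMB at 450 nm; IC50s determined.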

[3] = Mus musculus, T-lymphocyte; read-out: MLR IC50
[4] = read-out: LFA-1/ICAM-1 Protein-Protein Assay IC50

T1 sequence (P20701 26-1170): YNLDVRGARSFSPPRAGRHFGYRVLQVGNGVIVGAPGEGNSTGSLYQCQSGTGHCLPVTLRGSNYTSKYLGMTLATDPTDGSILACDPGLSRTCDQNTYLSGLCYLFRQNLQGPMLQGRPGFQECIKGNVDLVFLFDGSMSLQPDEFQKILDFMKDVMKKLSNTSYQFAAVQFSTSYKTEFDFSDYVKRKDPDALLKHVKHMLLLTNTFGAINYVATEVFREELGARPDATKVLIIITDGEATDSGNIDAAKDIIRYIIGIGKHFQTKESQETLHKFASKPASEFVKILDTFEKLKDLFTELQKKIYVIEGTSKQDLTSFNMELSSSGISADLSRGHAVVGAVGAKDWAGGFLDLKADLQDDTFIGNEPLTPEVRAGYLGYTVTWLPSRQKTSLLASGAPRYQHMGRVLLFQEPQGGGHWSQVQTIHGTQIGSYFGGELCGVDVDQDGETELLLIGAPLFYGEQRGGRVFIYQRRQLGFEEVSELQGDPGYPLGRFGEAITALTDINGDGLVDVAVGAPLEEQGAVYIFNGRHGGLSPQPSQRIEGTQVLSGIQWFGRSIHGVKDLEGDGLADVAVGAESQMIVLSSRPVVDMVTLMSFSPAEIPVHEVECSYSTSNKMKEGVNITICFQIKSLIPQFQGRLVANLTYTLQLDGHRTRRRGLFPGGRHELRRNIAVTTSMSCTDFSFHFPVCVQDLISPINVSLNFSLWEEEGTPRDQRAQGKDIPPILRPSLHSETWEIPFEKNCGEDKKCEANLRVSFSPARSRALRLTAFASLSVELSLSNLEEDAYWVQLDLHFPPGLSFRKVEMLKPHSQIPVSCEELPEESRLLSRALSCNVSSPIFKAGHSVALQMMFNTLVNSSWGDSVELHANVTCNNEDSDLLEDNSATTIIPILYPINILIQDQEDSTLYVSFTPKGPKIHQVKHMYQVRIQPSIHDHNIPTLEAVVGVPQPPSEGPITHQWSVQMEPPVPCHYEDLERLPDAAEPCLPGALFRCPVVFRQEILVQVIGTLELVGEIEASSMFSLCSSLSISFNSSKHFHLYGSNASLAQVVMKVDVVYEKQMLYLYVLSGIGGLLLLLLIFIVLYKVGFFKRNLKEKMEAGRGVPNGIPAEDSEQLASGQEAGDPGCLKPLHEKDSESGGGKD
T1 sequence (P05107 23-769): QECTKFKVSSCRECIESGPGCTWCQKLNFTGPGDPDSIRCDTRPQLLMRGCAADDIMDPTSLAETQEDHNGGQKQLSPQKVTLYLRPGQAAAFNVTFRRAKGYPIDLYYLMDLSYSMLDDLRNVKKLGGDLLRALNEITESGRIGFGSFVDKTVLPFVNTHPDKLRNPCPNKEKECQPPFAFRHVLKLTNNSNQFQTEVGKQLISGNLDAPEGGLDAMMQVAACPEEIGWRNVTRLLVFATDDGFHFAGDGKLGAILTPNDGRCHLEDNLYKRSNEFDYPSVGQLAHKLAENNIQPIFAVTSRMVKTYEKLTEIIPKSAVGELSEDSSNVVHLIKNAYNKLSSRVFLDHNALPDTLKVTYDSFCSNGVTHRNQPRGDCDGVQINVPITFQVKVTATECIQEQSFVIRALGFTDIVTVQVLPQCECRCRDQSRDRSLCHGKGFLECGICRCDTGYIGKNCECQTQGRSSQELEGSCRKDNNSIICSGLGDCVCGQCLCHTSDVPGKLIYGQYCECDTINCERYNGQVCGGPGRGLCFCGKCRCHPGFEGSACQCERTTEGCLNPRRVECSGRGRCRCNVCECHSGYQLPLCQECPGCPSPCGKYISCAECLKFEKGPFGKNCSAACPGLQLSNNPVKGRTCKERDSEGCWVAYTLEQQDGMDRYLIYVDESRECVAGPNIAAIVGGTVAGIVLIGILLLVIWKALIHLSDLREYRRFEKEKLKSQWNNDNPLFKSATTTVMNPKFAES

| SMILES | IC50 [1, 3] | IC50 [2, 4] | IC50 ([1]; sodium salt; read-out: MLR IC50) | IC50 ([1]; Mus musculus, T-lymphocyte, read-out: MLR IC50) | IC50 ([2]; LFA-1/ICAM-1 Protein-Protein Assay IC50) |
| --- | --- | --- | --- | --- | --- |
| O=C(NCc1cccc(O)c1)c1cc(Cl)c(C(=O)N[C@@H](CNC(=O)c2cc(F)cc(F)c2)C(=O)O)c(Cl)c1 [Example 344, N-[2,6-dichloro-4-[[[(3-hydroxyphenyl)methyl]amino]carbonyl]benzoyl]-3-[(3,5-difluorobenzoyl)amino]-L-alanine] | 34 nM | 0.3 nM | – | – | – |
| O=C(NCc1cccc(O)c1)c1ccc(C(=O)N[C@@H](CNC(=O)c2cc3ccccc3s2)C(=O)O)c(Cl)c1 [Example 175] | 4000 nM | 2.6 nM | – | – | – |
| O=C(NCc1cccc2[nH]ccc12)c1ccc(C(=O)N[C@@H](CNC(=O)c2ccoc2)C(=O)O)c(Cl)c1 [Example 316] | 425 nM | 1.3 nM | – | – | – |
| O=C(Cc1ccc2ccccc2c1)NC[C@H](NC(=O)c1ccc(C(=O)NCc2cccc(O)c2)cc1Cl)C(=O)O [Example 87] | 1300 nM | 4.8 nM | – | – | – |
| O=C(Cc1ccccc1)NC[C@H](NC(=O)c1ccc(C(=O)NCc2cccc(O)c2)cc1Cl)C(=O)O [Example 79] | 2500 nM | 2.9 nM | – | – | – |
| O=C(Cc1cccs1)NC[C@H](NC(=O)c1ccc(C(=O)NCc2cccc(O)c2)cc1Cl)C(=O)O [Example 84] | 1300 nM | 1 nM | – | – | – |
| O=C(CCc1cccc(O)c1)c1ccc(C(=O)N[C@@H](CNC(=O)c2cccs2)C(=O)O)c(Cl)c1 [Example 319, N-[2-chloro-4-[1-oxo-3-(3-hydroxyphenyl)propyl]benzoyl]-3-(thiophene-2-carbonyl)amino-L-alanine] | 665 nM | 1.4 nM | – | – | – |
| Cc1nnsc1C(=O)NC[C@H](NC(=O)c1ccc(C(=O)NCc2cccc(O)c2)cc1Cl)C(=O)O [Example 255] | 1850 nM | 2.9 nM | – | – | – |
| Cc1cc(C(=O)NCc2cccc(O)c2)cc(C)c1C(=O)N[C@@H](CNC(=O)c1cc(F)cc(F)c1)C(=O)O [Example 337, N-[2,6-dimethyl-4-[[[(3-hydroxyphenyl)methyl]amino]carbonyl]benzoyl]-3-(3,5-difluorobenzoylamino)-L-alanine] | 59 nM | 3.7 nM | – | – | – |
| NCCCC[C@H](N)C(=O)NC[C@H](NC(=O)c1ccc(C(=O)NCc2cccc(O)c2)cc1Cl)C(=O)O [Example 198] | 21500 nM | 12 nM | – | – | – |
| O=C(NCc1cccc(O)c1)c1cc(Cl)c(C(=O)N[C@@H](CNC(=O)c2cc(O)cc(O)c2)C(=O)O)c(Cl)c1 [Example 345, N-[2,6-dichloro-4-[[[(3-hydroxyphenyl)methyl]amino]carbonyl]benzoyl]-3-(3,5-dihydroxybenzoylamino)-L-alanine] | 2 nM | 0.2 nM | – | – | – |
| Nc1cccn(CC(=O)NC[C@H](NC(=O)c2ccc(C(=O)NCc3cccc(O)c3)cc2Cl)C(=O)O)c1=O [Example 266] | 3050 nM | 4.6 nM | – | – | – |
| CSCC[C@H](N)C(=O)NC[C@H](NC(=O)c1ccc(C(=O)NCc2cccc(O)c2)cc1Cl)C(=O)O [Example 197] | 22500 nM | 4.9 nM | – | – | – |
| O=C(NCc1cccc(O)c1)c1ccc(C(=O)N[C@@H](CNC(=O)c2csnn2)C(=O)O)c(Cl)c1 [Example 254] | 460 nM | 0.7 nM | – | – | – |
| N[C@@H](Cc1ccccc1)C(=O)NC[C@H](NC(=O)c1ccc(C(=O)NCc2cccc(O)c2)cc1Cl)C(=O)O [Example 199] | 19000 nM | 7.4 nM | – | – | – |
| O=C(NCc1cccc2[nH]ccc12)c1ccc(C(=O)N[C@@H](CNC(=O)c2cccs2)C(=O)O)c(Br)c1 [Example 329] | 420 nM | 2.7 nM | – | – | – |
| O=C(NCc1cccc2[nH]ncc12)c1ccc(C(=O)N[C@@H](CNC(=O)c2cccs2)C(=O)O)c(Cl)c1 [Example 327, N-[2-chloro-4-[[[(1H-indazol-4-yl)methyl]amino]carbonyl]benzoyl]-3-(thiophene-2-carbonyl)amino-L-alanine] | 180 nM | 1.8 nM | – | – | – |
| O=C(NCc1cccc2[nH]cnc12)c1ccc(C(=O)N[C@@H](CNC(=O)c2cccs2)C(=O)O)c(Cl)c1 [Example 322] | 3600 nM | 8.5 nM | – | – | – |

| SMILES | IC50 [1, 3] | IC50 [2, 4] | IC50 ([1]; sodium salt; read-out: MLR IC50) | IC50 ([1]; Mus musculus, T-lymphocyte, read-out: MLR IC50) | IC50 ([2]; LFA-1/ICAM-1 Protein-Protein Assay IC50) |
| --- | --- | --- | --- | --- | --- |
| O=C(NCc1cccc(O)c1)c1ccc(C(=O)N[C@@H](CNC(=O)c2ccccc2)C(=O)O)c(Cl)c1 [Example 302, 3-benzoylamino-N-[2-chloro-4-[[[(3-hydroxyphenyl)methyl]amino]carbonyl]benzoyl]-L-alanine] | 310 nM | 0.9 nM | – | – | – |
| O=C(NCc1cccc(O)c1)c1ccc(C(=O)N[C@@H](CNC(=O)c2cc(=O)c3ccccc3o2)C(=O)O)c(Cl)c1 [Example 187] | 2800 nM | 12 nM | – | – | – |
| O=C(CCc1ccccc1)NC[C@H](NC(=O)c1ccc(C(=O)NCc2cccc(O)c2)cc1Cl)C(=O)O [Example 94] | 1400 nM | 1.5 nM | – | – | – |
| O=C(NCc1cccc(O)c1)c1ccc(C(=O)N[C@@H](CNC(=O)c2ccoc2)C(=O)O)c(Cl)c1 [Example 259, N-[2-chloro-4-[[[(3-hydroxyphenyl)methyl]amino]carbonyl]benzoyl]-3-(furan-3-carbonyl)amino-L-alanine] | 260 nM | 1.2 nM | – | – | – |
| Cc1cc(C(=O)NCc2cccc(O)c2)cc(Cl)c1C(=O)N[C@@H](CNC(=O)c1cc(F)cc(F)c1)C(=O)O [Example 340, N-[2-chloro-4-[[[(3-hydroxyphenyl)methyl]amino]carbonyl]-6-methylbenzoyl]-3-[(3,5-difluorobenzoyl)amino]-L-alanine] | 36 nM | 0.3 nM | – | – | – |
| O=C(NC[C@H](NC(=O)c1ccc(-n2nnnc2NCc2cccc(O)c2)cc1Cl)C(=O)O)c1cccs1 [Example 321] | 775 nM | 2.6 nM | – | – | – |
| O=C(NCc1cccc(O)c1)c1ccc(C(=O)N[C@@H](CNC(=O)C23CC4CC(CC(C4)C2)C3)C(=O)O)c(Cl)c1 [Example 93] | 525 nM | 0.5 nM | – | – | – |
| O=C(NCc1cccc(O)c1)c1ccc(C(=O)N[C@@H](CNC(=O)c2cccs2)C(=O)O)c(Cl)c1 [Example 305, N-[2-chloro-4-[[[(3-hydroxyphenyl)methyl]amino]carbonyl]benzoyl]-3-(thiophene-2-carbonyl)amino-L-alanine, sodium salt] | – | 1 nM | 100 nM | – | – |
| NC(=O)C[C@H](N)C(=O)NC[C@H](NC(=O)c1ccc(C(=O)NCc2cccc(O)c2)cc1Cl)C(=O)O [Example 200] | 3100 nM | 2.9 nM | – | – | – |
| CC(C)C(=O)NC[C@H](NC(=O)c1ccc(C(=O)NCc2cccc(O)c2)cc1Cl)C(=O)O [Example 194] | 800 nM | 1.9 nM | – | – | – |
| O=C(NCc1cccc(O)c1)c1ccc(C(=O)N[C@@H](CNC(=O)c2ccc3ccccc3c2)C(=O)O)c(Cl)c1 [Example 179] | 5400 nM | 3.6 nM | – | – | – |
| O=C(NCc1cccc(O)c1)c1ccc(C(=O)N[C@@H](CNC(=O)c2cc([N+](=O)[O-])cc([N+](=O)[O-])c2)C(=O)O)c(Cl)c1 [Example 129] | – | – | – | 3000 nM | 4.2 nM |
| CC(C)CC(=O)NC[C@H](NC(=O)c1ccc(C(=O)NCc2cccc(O)c2)cc1Cl)C(=O)O [Example 195] | 840 nM | 2 nM | – | – | – |
| O=C(NC[C@H](NC(=O)c1c(Cl)cccc1Cl)C(=O)O)c1ccccc1 [Example 219] | 7250 nM | 13 nM | – | – | – |
| COc1ccc(CC(=O)NC[C@H](NC(=O)c2ccc(C(=O)NCc3cccc(O)c3)cc2Cl)C(=O)O)cc1 [Example 80] | 1800 nM | 6 nM | – | – | – |
| O=C(NCc1cccc(O)c1)c1cc(Cl)c(C(=O)N[C@@H](CNC(=O)c2cccs2)C(=O)O)c(Cl)c1 [Example 342, N-[2,6-dichloro-4-[[[(3-hydroxyphenyl)methyl]amino]carbonyl]benzoyl]-3-[(thiophene-2-carbonyl)amino]-L-alanine] | 27 nM | 1.6 nM | – | – | – |
| O=C(NCc1cccc(O)c1)c1ccc(C(=O)N[C@@H](CNC(=O)c2cccs2)C(=O)O)c(Cl)c1 [Example 303, N-[2-chloro-4-[[[(3-hydroxyphenyl)methyl]amino]carbonyl]benzoyl]-3-(thiophene-2-carbonyl)amino-L-alanine] | 70 nM | 0.5 nM | – | – | – |
| O=C(C[n+]1csc2ccccc21)NC[C@H](NC(=O)c1ccc(C(=O)NCc2cccc(O)c2)cc1Cl)C(=O)O [Example 89] | 10500 nM | 5.9 nM | – | – | – |
